From patent US8021664B2, “Tumor antigens Bfa5 for prevention and/or treatment of cancer” (Sanofi Pasteur Limited, priority 2003, dated 2011)
Where no end group is shown, it is not given here. KLH = keyhole limpet hemocyanin carrier protein

Assays:
HLA-A*0201 human T cells = assay: IFN-γ ELISPOT on human T-cell cultures activated with BFA5 peptides pulsed on autologous dendritic cells; format: cell-based; details: for BFA5 peptides eliciting high IFN-γ release (>200 spots/100,000 cells): a peptide given is positive
Procedure: A library of 100 peptides from the BFA5/NYBR-1 coding sequence that are predicted to be medium to high binders to HLA-A*0201 were designed using Rammensee and Parker algorithms. The library was sub-divided into 10 pools of ten peptides (Table III), and each pool was used to activate 10 different T cell cultures after pulsing peptides on to mature autologous dendritic cells.
ELISPOT analysis was performed on human T-cell cultures activated through four rounds of stimulation with each pool of BFA5 peptides. Reactivity against a CMV pp 65 peptide and a Flu matrix peptide were used as positive controls for T-cell activation in the experiments. Each experiment was performed with PBMC and dendritic cells from a single HLA-A*0201^+ donor designated as “AP10”. […] Similar results were obtained for both BFA4 and BFA5/NYBR-1 with a different HLA-A*0201. […] Cultures having a reading of 600 spots have more than this number of spots.
A large number of the BFA5 peptide pools of are reactive as shown by the high levels of IFN-γ production. Each reactive peptide pool was then separated into individual peptides and analyzed for immunogencity using ELISPOT analysis to isolate single reactive BFA5 peptides. BFA5 is highly immunogenic with several reactive single peptides than that of BFA4. Similar results were obtained in two independent PBMC culture experiments.

peptide-loaded T2 cells = assay: 51Cr-release CTL assay of peptide-activated T cells; details: a peptide given is positive
Procedure: In addition to ELISPOT analysis, human T cells activated by BFA5 peptides were assayed to determine their ability to function as CTL. The cells were activated using peptide-pulsed dendritic cells followed by CD40 ligand-activated B cells (5 rounds of stimulation). […] Isolated T cells were tested in ^51Cr-release assays using peptide-loaded T2 cells. The % specific lysis at a 10:1, 5:1, and 1:1 T-cell to target ratio is shown for T2 cells pulsed with either pools of BFA5/NYBR-1 peptides or with individual peptides.

[1] = Rabbit immunization with BFA5 peptides, serum IgG titer; format: in vivo; details: for IgG titer × 10^5 (After first Immunization Rb1/Rb2): after first immunization (peptide in FCA); for IgG titer × 10^5 (After second Immunization Rb1/Rb2): after second immunization (KLH-coupled peptide in FIA)
Procedure: Prebleed samples from rabbits were processed and stored at −20° C. Rabbits were immunized as follows: 1) the peptides were administered as an emulsion with Freund's Complete Adjuvant (FCA); and, 2) two weeks later, the peptides were coupled with Keyhole-Limpet Hemocyanin (KLH)-coupled and administered as an emulsion with Freund's Incomplete Adjuvant FIA.

77 (AELQMTLKL; listed as Homo sapiens) [compound 77]
BFA5 peptides eliciting high IFN-γ release (>200 spots/100,000 cells) (HLA-A*0201 human T cells; Donor AP10): AELQMTLKL
BFA5 peptides inducing CTL lysis of pulsed cells (peptide-loaded T2 cells; Donor AP10): AELQMTLKL
BFA5 peptides inducing CTL lysis of pulsed cells (peptide-loaded T2 cells; Donor AP31): AELQMTLKL

KLH-RLTLNQEEEKRRNADILNEKIRE ({KLH}-RLTLNQEEEKRRNADILNEKIRE; listed as Homo sapiens) [CLP 2980]
IgG titer × 10^5 (After first Immunization Rb1/Rb2) ([1]; rabbit Rb1): 25 × 10^5
IgG titer × 10^5 (After second Immunization Rb1/Rb2) ([1]; rabbit Rb1): 1024 × 10^5
IgG titer × 10^5 (After first Immunization Rb1/Rb2) ([1]; rabbit Rb2): 12 × 10^5
IgG titer × 10^5 (After second Immunization Rb1/Rb2) ([1]; rabbit Rb2): 128 × 10^5

37 (SLTPLLLSI; listed as Homo sapiens) [compound 37]
BFA5 peptides eliciting high IFN-γ release (>200 spots/100,000 cells) (HLA-A*0201 human T cells; Donor AP10): SLTPLLLSI
BFA5 peptides eliciting high IFN-γ release (>200 spots/100,000 cells) (HLA-A*0201 human T cells; Donor AP31): SLTPLLLSI
BFA5 peptides inducing CTL lysis of pulsed cells (peptide-loaded T2 cells; Donor AP31): SLTPLLLSI

KLH-MTKRKKTINLNIQDAQKRTALHW ({KLH}-MTKRKKTINLNIQDAQKRTALHW; listed as Homo sapiens) [CLP 2977]
IgG titer × 10^5 (After first Immunization Rb1/Rb2) ([1]; rabbit Rb1): 25 × 10^5
IgG titer × 10^5 (After second Immunization Rb1/Rb2) ([1]; rabbit Rb1): 256 × 10^5
IgG titer × 10^5 (After first Immunization Rb1/Rb2) ([1]; rabbit Rb2): 6 × 10^5
IgG titer × 10^5 (After second Immunization Rb1/Rb2) ([1]; rabbit Rb2): 64 × 10^5

63 (ALRIQDIEL; listed as Homo sapiens) [compound 63]
BFA5 peptides eliciting high IFN-γ release (>200 spots/100,000 cells) (HLA-A*0201 human T cells; Donor AP10): ALRIQDIEL

72 (SLKINLNYA; listed as Homo sapiens) [compound 72]
BFA5 peptides eliciting high IFN-γ release (>200 spots/100,000 cells) (HLA-A*0201 human T cells; Donor AP10): SLKINLNYA
BFA5 peptides eliciting high IFN-γ release (>200 spots/100,000 cells) (HLA-A*0201 human T cells; Donor AP31): SLKINLNYA
BFA5 peptides inducing CTL lysis of pulsed cells (peptide-loaded T2 cells; Donor AP31): SLKINLNVA

78 (VFAADICGV; listed as Homo sapiens) [compound 78]
BFA5 peptides eliciting high IFN-γ release (>200 spots/100,000 cells) (HLA-A*0201 human T cells; Donor AP31): VFAADICGV

30 (KVMEINREV; listed as Homo sapiens) [compound 30]
BFA5 peptides eliciting high IFN-γ release (>200 spots/100,000 cells) (HLA-A*0201 human T cells; Donor AP10): KVMEINREV

74 (ATCGMKVSI; listed as Homo sapiens) [compound 74]
BFA5 peptides eliciting high IFN-γ release (>200 spots/100,000 cells) (HLA-A*0201 human T cells; Donor AP10): ATCGMKVSI
BFA5 peptides inducing CTL lysis of pulsed cells (peptide-loaded T2 cells; Donor AP10): ATCGMKVSI

67 (VLKKKLSEA; listed as Homo sapiens) [compound 67]
BFA5 peptides eliciting high IFN-γ release (>200 spots/100,000 cells) (HLA-A*0201 human T cells; Donor AP31): VLKKKLSEA

9 (SIPTKALEL; listed as Homo sapiens) [compound 9]
BFA5 peptides eliciting high IFN-γ release (>200 spots/100,000 cells) (HLA-A*0201 human T cells; Donor AP10): SIPTKALEL
BFA5 peptides inducing CTL lysis of pulsed cells (peptide-loaded T2 cells; Donor AP31): SIPTKALEL

49 (SVPNKAFEL; listed as Homo sapiens) [compound 49]
BFA5 peptides eliciting high IFN-γ release (>200 spots/100,000 cells) (HLA-A*0201 human T cells; Donor AP10): SVPNKAFEL

BFA4: tumor antigen BFA4 (SEQ ID NOS.: 1 and 2), compared with BFA5 in T-cell ELISPOT
ELISPOT reactivity (IFN-γ production) of peptide pools (HLA-A*0201 human T cells; four rounds of stimulation, HLA-A*0201+ donor AP10, counts per 100,000 cells): markedly reactive

59 (MLKLEIATL; listed as Homo sapiens) [compound 59]
BFA5 peptides eliciting high IFN-γ release (>200 spots/100,000 cells) (HLA-A*0201 human T cells; Donor AP10): MLKLEIATL
BFA5 peptides eliciting high IFN-γ release (>200 spots/100,000 cells) (HLA-A*0201 human T cells; Donor AP31): MLKLEIATL
BFA5 peptides inducing CTL lysis of pulsed cells (peptide-loaded T2 cells; Donor AP31): MLKLEIATL

54 (GVTAEHYAV; listed as Homo sapiens) [compound 54]
BFA5 peptides eliciting high IFN-γ release (>200 spots/100,000 cells) (HLA-A*0201 human T cells; Donor AP31): GVTAEHYAV

51 (NLNYAGDAL; listed as Homo sapiens) [compound 51]
BFA5 peptides eliciting high IFN-γ release (>200 spots/100,000 cells) (HLA-A*0201 human T cells; Donor AP10): NLNYAGDAL
BFA5 peptides eliciting high IFN-γ release (>200 spots/100,000 cells) (HLA-A*0201 human T cells; Donor AP31): NLNYAGDAL

KLH-DEILPSESKQKDYEENSWDTESL ({KLH}-DEILPSESKQKDYEENSWDTESL; listed as Homo sapiens) [CLP 2979]
IgG titer × 10^5 (After first Immunization Rb1/Rb2) ([1]; rabbit Rb1): 12 × 10^5
IgG titer × 10^5 (After second Immunization Rb1/Rb2) ([1]; rabbit Rb1): 256 × 10^5
IgG titer × 10^5 (After first Immunization Rb1/Rb2) ([1]; rabbit Rb2): 25 × 10^5
IgG titer × 10^5 (After second Immunization Rb1/Rb2) ([1]; rabbit Rb2): 512 × 10^5

84 (NLVDVYGNM; listed as Homo sapiens) [compound 84]
BFA5 peptides eliciting high IFN-γ release (>200 spots/100,000 cells) (HLA-A*0201 human T cells; Donor AP10): NLVDVYGNM
BFA5 peptides inducing CTL lysis of pulsed cells (peptide-loaded T2 cells; Donor AP10): NLVDVYGNM

8 (KVSIPTKAL; listed as Homo sapiens) [compound 8]
BFA5 peptides eliciting high IFN-γ release (>200 spots/100,000 cells) (HLA-A*0201 human T cells; Donor AP10): KVSIPTKAL
BFA5 peptides inducing CTL lysis of pulsed cells (peptide-loaded T2 cells; Donor AP31): KVSIPTKAL

57 (KSQEPAFHI; listed as Homo sapiens) [compound 57]
BFA5 peptides eliciting high IFN-γ release (>200 spots/100,000 cells) (HLA-A*0201 human T cells; Donor AP31): KSQEPAFHI

11 (TVSQKDVCL; listed as Homo sapiens) [compound 11]
BFA5 peptides eliciting high IFN-γ release (>200 spots/100,000 cells) (HLA-A*0201 human T cells; Donor AP10): TVSQKDVCL

32 (AVYSEILSV; listed as Homo sapiens) [compound 32]
BFA5 peptides eliciting high IFN-γ release (>200 spots/100,000 cells) (HLA-A*0201 human T cells; Donor AP10): AVYSEILSV

28 (SLSKILDTV; listed as Homo sapiens) [compound 28]
BFA5 peptides eliciting high IFN-γ release (>200 spots/100,000 cells) (HLA-A*0201 human T cells; Donor AP10): SLSKILDTV
BFA5 peptides eliciting high IFN-γ release (>200 spots/100,000 cells) (HLA-A*0201 human T cells; Donor AP31): SLSKILDTV
BFA5 peptides inducing CTL lysis of pulsed cells (peptide-loaded T2 cells; Donor AP31): SLSKILDTV

KLH-NYNNHLKNRIYQYEKEKAETENS ({KLH}-NYNNHLKNRIYQYEKEKAETENS; listed as Homo sapiens) [CLP 2982]
IgG titer × 10^5 (After first Immunization Rb1/Rb2) ([1]; rabbit Rb1): 2/2 × 10^5
IgG titer × 10^5 (After second Immunization Rb1/Rb2) ([1]; rabbit Rb1): 64 × 10^5
IgG titer × 10^5 (After first Immunization Rb1/Rb2) ([1]; rabbit Rb2): 2/2 × 10^5
IgG titer × 10^5 (After second Immunization Rb1/Rb2) ([1]; rabbit Rb2): 32 × 10^5

85 (KCTALMLAV; listed as Homo sapiens) [compound 85]
BFA5 peptides eliciting high IFN-γ release (>200 spots/100,000 cells) (HLA-A*0201 human T cells; Donor AP10): KCTALMLAV

12 (SVPNKALEL; listed as Homo sapiens) [compound 12]
BFA5 peptides eliciting high IFN-γ release (>200 spots/100,000 cells) (HLA-A*0201 human T cells; Donor AP10): SVPNKALEL

24 (QLQSKNMWL; listed as Homo sapiens) [compound 24]
BFA5 peptides eliciting high IFN-γ release (>200 spots/100,000 cells) (HLA-A*0201 human T cells; Donor AP10): QLQSKNMWL
BFA5 peptides eliciting high IFN-γ release (>200 spots/100,000 cells) (HLA-A*0201 human T cells; Donor AP31): QLQSKNMWL
BFA5 peptides inducing CTL lysis of pulsed cells (peptide-loaded T2 cells; Donor AP31): QLQSKNMWL

KLH-TSEKFTWPAKGRPRKIAWEKKED ({KLH}-TSEKFTWPAKGRPRKIAWEKKED; listed as Homo sapiens) [CLP 2978]
IgG titer × 10^5 (After first Immunization Rb1/Rb2) ([1]; rabbit Rb1): 25/25 × 10^5
IgG titer × 10^5 (After second Immunization Rb1/Rb2) ([1]; rabbit Rb1): 64 × 10^5
IgG titer × 10^5 (After first Immunization Rb1/Rb2) ([1]; rabbit Rb2): 25/25 × 10^5
IgG titer × 10^5 (After second Immunization Rb1/Rb2) ([1]; rabbit Rb2): 256 × 10^5

81 (ILKEKNAEL; listed as Homo sapiens) [compound 81]
BFA5 peptides eliciting high IFN-γ release (>200 spots/100,000 cells) (HLA-A*0201 human T cells; Donor AP10): ILKEKNAEL
BFA5 peptides eliciting high IFN-γ release (>200 spots/100,000 cells) (HLA-A*0201 human T cells; Donor AP31): ILKEKNAEL

61 (MLKKEIAML; listed as Homo sapiens) [compound 61]
BFA5 peptides eliciting high IFN-γ release (>200 spots/100,000 cells) (HLA-A*0201 human T cells; Donor AP31): MLKKEIAML

KLH-AENTMLTSKLKEKQDKEILEAEI ({KLH}-AENTMLTSKLKEKQDKEILEAEI; listed as Homo sapiens) [CLP 2981]
IgG titer × 10^5 (After first Immunization Rb1/Rb2) ([1]; rabbit Rb1): 8 × 10^5
IgG titer × 10^5 (After second Immunization Rb1/Rb2) ([1]; rabbit Rb1): 256 × 10^5
IgG titer × 10^5 (After first Immunization Rb1/Rb2) ([1]; rabbit Rb2): 4 × 10^5
IgG titer × 10^5 (After second Immunization Rb1/Rb2) ([1]; rabbit Rb2): 64 × 10^5
